Measurements reported in patent US10183944B2 (Asana Biosciences, LLC, priority 2011, dated 2019).

Legend:
[1] = molecular target: Syk (356-635 amino acids) catalytic domain (Homo sapiens (Human), UniProt P43405); assay: Inhibition of enzymatic Syk kinase activity (radiometric); assay type: biochemical; details: read-out: IC50 Syk
How it was run: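 Human Syk (356-635) kinase domain (0.035–7.5 ng/reaction) preincubated with compound 30 minutes at room temperature, then reacted with pG4T substrate, 100 μM ATP (stock) and γ-32P-ATP for 10 minutes at 30° C. Reaction stopped with HCl/ATP, spotted on P81 paper, washed and counted by scintillation. Percent inhibition versus no-compound counts.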

[2] = molecular target: JAK2 (Homo sapiens (Human), UniProt O60674); assay: Inhibition of enzymatic JAK2 kinase activity (TR-FRET); assay type: biochemical; details: read-out: IC50 JAK
How it was run: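 Enzyme preincubated with compound 30 min at RT, then Ulight-poly-GT substrate and ATP added for 60 min at RT. EDTA stop, Eu-antiphosphotyrosine antibody; TR-FRET ratio 665/615 nm (ex 340 nm), blank-corrected; % inhibition versus positive control.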

[3] = test system: RBL2H3 cells; assay: Degranulation assay: β-hexosaminidase release during immune complex mediated degranulation; assay type: cell-based, rat; details: Rattus norvegicus, RBL-2H3, Assay Protocol B (96 well format); for inhibition at 1 µM: read-out: Degranulation % inhibition at 1 μM; for EC50: read-out: Degranulation EC50
How it was run: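 RBL2H3 cells sensitized overnight (or 24 h) with anti-DNP rat IgE, pretreated 15 min with compounds in 0.5% DMSO, then challenged with DNP-BSA for 45–60 min. β-Hexosaminidase in supernatant read fluorometrically (Ex 355/Em 460 nm) with β-NAG substrate, 30 min RT; % release/inhibition calculated.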

Sequence of JAK2 (O60674 808-1132): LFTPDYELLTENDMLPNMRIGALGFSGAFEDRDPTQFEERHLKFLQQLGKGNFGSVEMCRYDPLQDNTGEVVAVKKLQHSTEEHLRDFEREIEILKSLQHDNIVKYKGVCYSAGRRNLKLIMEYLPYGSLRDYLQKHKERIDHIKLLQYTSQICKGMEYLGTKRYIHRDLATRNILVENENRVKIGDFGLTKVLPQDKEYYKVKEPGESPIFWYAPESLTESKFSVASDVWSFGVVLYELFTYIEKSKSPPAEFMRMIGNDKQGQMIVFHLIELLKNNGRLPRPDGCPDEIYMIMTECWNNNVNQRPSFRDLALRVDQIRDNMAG

Structure (SMILES) | IC50 [1] [nM] | IC50 [2] [nM] | EC50 [3] [nM] | inhibition at 1 µM [3] [%]
CC1CCN(c2nc(Nc3ccc(N4CCC5(CC4)CC5C(=O)O)cc3)c3c(=O)[nH]ncc3n2)CC1 (centres unmarked) [Example 155, 6-(4-((2-(4-methylpiperidin-1-yl)-5-oxo-5,6-dihydropyrimido[4,5-d]pyridazin-4-yl)amino)phenyl)-6-azaspiro[2.5]octane-1-carboxylic acid] | < 50 | < 50 | 27 | –
O=C1CN(CCOc2ccc(Nc3nc(N4CCCCCC4)nc4cn[nH]c(=O)c34)cc2)CCN1 [Example 157, 2-(azepan-1-yl)-4-((4-(2-(3-oxopiperazin-1-yl)ethoxy)phenyl)amino) pyrimido[4,5-d]pyridazin-5(6H)-one] | < 50 | < 50 | 42 | 70
O=c1[nH]ncc2nc(N3CCCCCC3)nc(Nc3ccc(CCCN4CCNCC4)cc3)c12 [Example 173, 2-(azepan-1-yl)-4-((4-(3-(piperazin-1-yl)propyl)phenyl)amino)pyrimido[4,5-d]pyridazin-5(6H)-one] | < 50 | < 50 | 29 | 66
CCN1CCN(c2ccc(Nc3nc(N4CCC(CC#N)CC4)nc4cn[nH]c(=O)c34)cc2)CC1=O [Example 178, 2-(1-(4-((4-(4-ethyl-3-oxopiperazin-1-yl)phenyl)amino)-5-oxo-5,6-dihydropyrimido[4,5-d]pyridazin-2-yl)piperidin-4-yl)acetonitrile] | < 10 | < 10 | 39 | 73
O=c1[nH]ncc2nc(N3CCCCC3)nc(Nc3ccc(OCCN4CCC(O)CC4)cc3)c12 [Example 183, 4-((4-(2-(4-hydroxypiperidin-1-yl)ethoxy)phenyl)amino)-2-(piperidin-1-yl)pyrimido[4,5-d]pyridazin-5(6H)-one] | < 10 | < 50 | 83 | 41
CC1(O)CCN(CCOc2ccc(Nc3nc(N4CCC(CC#N)CC4)nc4cn[nH]c(=O)c34)cc2)CC1 [Example 185, 2-(1-(4-((4-(2-(4-hydroxy-4-methylpiperidin-1-yl)ethoxy)phenyl)amino)-5-oxo-5,6-dihydropyrimido[4,5-d]pyridazin-2-yl)piperidin-4-yl)acetonitrile] | < 10 | < 50 | 29 | 83
O=c1[nH]ncc2nc(N3CCCCCC3)nc(Nc3ccc(N4CCC(O)CC4)cc3)c12 [Example 186, 2-(azepan-1-yl)-4-((4-(4-hydroxypiperidin-1-yl)phenyl)amino) pyrimido[4,5-d]pyridazin-5(6H)-one] | < 10 | < 100 | 10 | 93
CCN1CCN(c2ccc(Nc3nc(N4CCC(CC#N)CC4)nc4cn[nH]c(=O)c34)cc2)CC1 [Example 187, 2-(1-(4-((4-(4-ethylpiperazin-1-yl)phenyl)amino)-5-oxo-5,6-dihydropyrimido[4,5-d]pyridazin-2-yl)piperidin-4-yl)acetonitrile] | < 10 | < 50 | 12 | 100
N#CCC1CCN(c2nc(Nc3ccc(N4CCNCC4)cc3)c3c(=O)[nH]ncc3n2)CC1 [Example 193, 2-(1-(5-oxo-4-((4-(piperazin-1-yl)phenyl)amino)-5,6-dihydropyrimido[4,5-d]pyridazin-2-yl)piperidin-4-yl)acetonitrile] | < 10 | < 10 | 17 | 93
O=c1[nH]ncc2nc(N3CCCCCC3)nc(Nc3ccc(CCN4CCC(O)CC4)cc3)c12 [Example 201, 2-(azepan-1-yl)-4-((4-(2-(4-hydroxypiperidin-1-yl)ethyl)phenyl)amino)pyrimido[4,5-d]pyridazin-5(6H)-one] | < 10 | < 10 | 31 | 88

Further lines, with some results ahead:

IC50 [1] [nM] | IC50 [2] [nM] | EC50 [3] [nM] | Structure (SMILES) | inhibition at 1 µM [3] [%]
< 50 | < 50 | 2320 | O=C(O)CN1CCCN(c2ccc(Nc3nc(N4CCCCC4)nc4cn[nH]c(=O)c34)cc2)CC1 [Example 154, 2-(4-(4-((5-oxo-2-(piperidin-1-yl)-5,6-dihydropyrimido[4,5-d]pyridazin-4-yl)amino)phenyl)-1,4-diazepan-1-yl)acetic acid] | 23
< 50 | < 10 | 162 | O=C(O)C1CC12CCN(CCOc1ccc(Nc3nc(N4CCCCCC4)nc4cn[nH]c(=O)c34)cc1)CC2 (centres unmarked) [Example 158, 6-(2-(4-((2-(azepan-1-yl)-5-oxo-5,6-dihydropyrimido[4,5-d]pyridazin-4-yl)amino)phenoxy)ethyl)-6-azaspiro[2.5]octane-1-carboxylic acid] | 53
< 50 | < 10 | 56 | CCN(CC)CCOc1ccc(Nc2nc(N3CCCCCC3)nc3cn[nH]c(=O)c23)cc1 [Example 159, 2-(azepan-1-yl)-4-((4-(2-(diethylamino)ethoxy)phenyl)amino)pyrimido[4,5-d]pyridazin-5(6H)-one] | 68
< 50 | < 10 | 39 | CN(c1nc(Nc2ccc(N3CCC(CC(=O)O)CC3)cc2)c2c(=O)[nH]ncc2n1)C1CCCCC1 [Example 161, 2-(1-(4-((2-(cyclohexyl(methyl)amino)-5-oxo-5,6-dihydropyrimido[4,5-d]pyridazin-4-yl)amino)phenyl)piperidin-4-yl)acetic acid] | 74
< 10 | < 10 | 281 | N#CCC1CCN(c2nc(Nc3ccc(N4CCN(CC(=O)O)CC4)cc3)c3c(=O)[nH]ncc3n2)CC1 [Example 162, 2-(4-(4-((2-(4-(cyanomethyl)piperidin-1-yl)-5-oxo-5,6-dihydropyrimido[4,5-d]pyridazin-4-yl)amino)phenyl)piperazin-1-yl)acetic acid] | 27
< 50 | < 10 | 101 | O=c1[nH]ncc2nc(N3CCCCCC3)nc(Nc3ccc(OCCN4CCC(O)CC4)cc3)c12 [Example 172, 2-(azepan-1-yl)-4-((4-(2-(4-hydroxypiperidin-1-yl)ethoxy)phenyl)amino)pyrimido[4,5-d]pyridazin-5(6H)-one] | 50
< 10 | < 10 | 6 | CCN1CCN(c2ccc(Nc3nc(N4CCCCCC4)nc4cn[nH]c(=O)c34)cc2)CC1=O [Example 175, 2-(azepan-1-yl)-4-((4-(4-ethyl-3-oxopiperazin-1-yl)phenyl)amino) pyrimido[4,5-d]pyridazin-5(6H)-one] | 98
< 10 | < 10 | 9 | O=c1[nH]ncc2nc(N3CCCCCC3)nc(Nc3ccc(CCCN4CCC(O)CC4)cc3)c12 [Example 179, 2-(azepan-1-yl)-4-((4-(3-(4-hydroxypiperidin-1-yl)propyl)phenyl)amino)pyrimido[4,5-d]pyridazin-5(6H)-one] | 45
< 10 | < 10 | 3 | CCN1CCN(c2ccc(Nc3nc(N4CCCCCC4)nc4cn[nH]c(=O)c34)cc2)CC1 [Example 180, 2-(azepan-1-yl)-4-((4-(4-ethylpiperazin-1-yl)phenyl)amino)pyrimido[4,5-d]pyridazin-5(6H)-one] | 70
< 10 | < 10 | 33 | CC1(O)CCN(CCOc2ccc(Nc3nc(N4CCCCCC4)nc4cn[nH]c(=O)c34)cc2)CC1 [Example 184, 2-(azepan-1-yl)-4-((4-(2-(4-hydroxy-4-methylpiperidin-1-yl)ethoxy)phenyl)amino)pyrimido[4,5-d]pyridazin-5(6H)-one] | 65
< 10 | < 10 | 27 | O=c1[nH]ncc2nc(N3CCCCCC3)nc(Nc3ccc(N4CCNCC4)cc3)c12 [Example 192, 2-(azepan-1-yl)-4-((4-(piperazin-1-yl)phenyl)amino)pyrimido[4,5-d]pyridazin-5(6H)-one] | 82
< 10 | < 50 | 66 | N#CCC1CCN(c2nc(Nc3ccc(OCCN)cc3)c3c(=O)[nH]ncc3n2)CC1 [Example 200, 2-(1-(4-((4-(2-aminoethoxy)phenyl)amino)-5-oxo-5,6-dihydropyrimido[4,5-d]pyridazin-2-yl)piperidin-4-yl) acetonitrile] | 71
< 10 | < 10 | 14 | O=C(O)CCN1CCN(c2ccc(Nc3nc(N4CCCCCC4)nc4cn[nH]c(=O)c34)cc2)CC1 [Example 208, 3-(4-(4-((2-(azepan-1-yl)-5-oxo-5,6-dihydropyrimido[4,5-d]pyridazin-4-yl)amino)phenyl)piperazin-1-yl) propanoic acid] | 21
< 50 | < 10 | 22 | CC1(O)CCN(CCc2ccc(Nc3nc(N4CCCCCC4)nc4cn[nH]c(=O)c34)cc2)CC1 [Example 210, 2-(azepan-1-yl)-4-((4-(2-(4-hydroxy-4-methylpiperidin-1-yl)ethyl)phenyl)amino) pyrimido[4,5-d]pyridazin-5(6H)-one] | 79
